# Laboratory results from patent US5420335A, “Parenteral nutrients based on watersoluble glycerol bisacetoacetates” (priority 1993, dated 1995).
# “And” between values parts separate entries of the source, which are not always exact repeats. Identical values can stand only once.
# Experiments:
# Format in all cases: in vivo, rat (male Sprague-Dawley)
# [1] = Oral dietary nitrogen (food) intake of intravenously infused rats; settings: for Dietary Nitrogen Intake: Table 1, Example 2
# Procedure: (§1) Water was available ad libitum at all times.
# (§2) The vein was then ligated dorsally to the catheter. […] Body weights were measured daily.
# (§3) Infusate volume, oral food intake, body weight and urinary volume and total nitrogen were monitored daily for each rat. Infusate volume and food intake were determined by weighing the appropriate container at the start and end of each 24 hr. period. Measurements were recorded between 9 and 10 AM each day. At the end of the 7th day, rats were sacrificed, and blood and liver were harvested. Plasma was separated for measurement of free fatty acids, glucose, and ketone bodies. Liver was weighed and a sample was fixed in buffered formalin for gross histology.
# (§4) The data were analyzed for significance by the one-way analysis of variance with repeated measures and comparing the effect of dietary treatment on each day. […] The null hypothesis was concluded invalid if p≤0.05. The analysis of variance was computed on a SAS statistical package.
# (§5) This compound has an estimated energy density of 4.86 kcal/gram based on thermodynamic data from similar compounds.
# [2] = Daily urinary nitrogen losses of intravenously infused rats
# Procedure: as §1, §2, §3
# The data were analyzed for significance by the one-way analysis of variance with repeated measures and comparing the effect of dietary treatment on each day. […] The null hypothesis was concluded invalid if p≤0.05. The analysis of variance was computed on a SAS statistical package. […]
# [3] = Nitrogen balance (difference between intake and urinary output); settings: for Nitrogen Balance, Difference Between Intake and Output: Table 3, Example 2
# Procedure: as §1, §2, §3, §4
# FIG. 3 illustrates the difference between oral intake and urinary nitrogen output which is termed nitrogen balance. It is representative of nitrogen balance because urinary nitrogen is the major route for body loss of nitrogen.
# The experimental compound contains 8% nitrogen. With an infusion of 5.6 grams/day, infused nitrogen would provide approximately 450 mg more than that listed in the data tables. The final balance figures includes this number which is calculated based on the actual daily infusion rate for each rat.
# [4] = Daily body weight of intravenously infused rats; settings: Table 4, Example 2
# Procedure: as §1, §2, §3, §4, §5
smiles,measurement,setting,value
"OC[C@H]1OC(O)[C@H](O)[C@@H](O)[C@@H]1O (some centres unmarked) [Glucose, glucose, reference compound]",Dietary Nitrogen Intake,"[1]; day 1, individual rat",111.86 MG N and 164.5 MG N and 486.92 MG N and 269.78 MG N
same,Dietary Nitrogen Intake,"[1]; day 2, individual rat",217.14 MG N and 85.54 MG N and 427.7 MG N and 144.76 MG N and 493.5 MG N and 526.4 MG N
same,Dietary Nitrogen Intake,"[1]; day 3, individual rat",151.34 MG N and 118.44 MG N and 559.3 MG N and 52.64 MG N and 250.04 MG N and 276.36 MG N and 631.68 MG N
same,Dietary Nitrogen Intake,"[1]; day 4, individual rat",131.6 MG N and 118.44 MG N and 572.46 MG N and 98.7 MG N and 394.8 MG N and 414.54 MG N and 526.4 MG N
same,Dietary Nitrogen Intake,"[1]; day 5, individual rat",236.88 MG N and 230.3 MG N and 407.96 MG N and 157.92 MG N and 223.72 MG N and 217.14 MG N and 559.3 MG N
same,Dietary Nitrogen Intake,"[1]; day 6, average of 7 rats",303 MG N
same,Dietary Nitrogen Intake,"[1]; day 6, individual rat",118.44 MG N and 105.28 MG N and 243.46 MG N and 342.16 MG N and 289.52 MG N and 375.06 MG N and 644.84 MG N
same,Dietary Nitrogen Intake,"[1]; day 7, individual rat",177.66 MG N and 157.92 MG N and 269.78 MG N and 526.4 MG N and 210.56 MG N and 473.76 MG N and 664.58 MG N
same,appetite depression,"[1]; in words, Example 4",glucose induced better appetite depression than did the experimental compound
same,differences in dietary nitrogen intake among the three groups,"[1]; in words, vs saline and other groups, 7 days",no differences in dietary nitrogen intake among the three groups
same,Urinary Nitrogen,"[2]; Table 2, Example 2, day 1, average of 7 rats",144 mg
same,Urinary Nitrogen,"[2]; Table 2, Example 2, day 1, individual rat",164.08 mg and 92.04 mg and 219.2 mg and 80.25 mg and 78.51 mg and 282.44 mg and 88.28 mg
same,Urinary Nitrogen,"[2]; Table 2, Example 2, day 2, average of 7 rats",146 mg
same,Urinary Nitrogen,"[2]; Table 2, Example 2, day 2, individual rat",131.95 mg and 74.58 mg and 311.7 mg and 147.44 mg and 42.51 mg and 224.09 mg and 88.37 mg
same,Urinary Nitrogen,"[2]; Table 2, Example 2, day 3, average of 7 rats",203 mg
same,Urinary Nitrogen,"[2]; Table 2, Example 2, day 3, individual rat",58.42 mg and 94.88 mg and 599.66 mg and 115.01 mg and 145.05 mg and 174.3 mg and 236.92 mg
same,Urinary Nitrogen,"[2]; Table 2, Example 2, day 4, average of 7 rats",129 mg
same,Urinary Nitrogen,"[2]; Table 2, Example 2, day 4, individual rat",109.72 mg and 80.52 mg and 274.22 mg and 93.31 mg and 78.6 mg and 145.43 mg and 124.12 mg
same,Urinary Nitrogen,"[2]; Table 2, Example 2, day 5, average of 7 rats",177 mg
same,Urinary Nitrogen,"[2]; Table 2, Example 2, day 5, individual rat",111.02 mg and 125.89 mg and 316.17 mg and 84.8 mg and 224.34 mg and 241.17 mg and 137.97 mg
same,Urinary Nitrogen,"[2]; Table 2, Example 2, day 6, average of 7 rats",178 mg
same,Urinary Nitrogen,"[2]; Table 2, Example 2, day 6, individual rat",114.67 mg and 65.54 mg and 227.23 mg and 135.24 mg and 118.95 mg and 333.85 mg and 252.42 mg
same,Urinary Nitrogen,"[2]; Table 2, Example 2, day 7, average of 7 rats",218 mg
same,Urinary Nitrogen,"[2]; Table 2, Example 2, day 7, individual rat",71.89 mg and 105.54 mg and 474.91 mg and 159.89 mg and 124.66 mg and 267 mg and 319.39 mg
same,Urinary Nitrogen,"[2]; Table 8, Example 4, day 1, average of 9 rats",128 mg
same,Urinary Nitrogen,"[2]; Table 8, Example 4, day 1, individual rat",252 mg and 114.8 mg and 82.1 mg and 75.4 mg and 22.4 mg and 158.4 mg and 133.9 mg and 148.3 mg and 164.3 mg
same,Urinary Nitrogen,"[2]; Table 8, Example 4, day 2, average of 9 rats",135 mg
same,Urinary Nitrogen,"[2]; Table 8, Example 4, day 2, individual rat",266.4 mg and 153.9 mg and 105 mg and 57 mg and 91.8 mg and 159.8 mg and 111 mg and 108.9 mg and 158 mg
same,Urinary Nitrogen,"[2]; Table 8, Example 4, day 3, average of 9 rats",106 mg
same,Urinary Nitrogen,"[2]; Table 8, Example 4, day 3, individual rat",151 mg and 89.1 mg and 107.2 mg and 68.4 mg and 118.3 mg and 131.9 mg and 135.4 mg and 59.8 mg and 91.8 mg
same,Urinary Nitrogen,"[2]; Table 8, Example 4, day 4, average of 9 rats",125 mg
same,Urinary Nitrogen,"[2]; Table 8, Example 4, day 4, individual rat",127.2 mg and 92.7 mg and 114.8 mg and 44.5 mg and 73.8 mg and 165.9 mg and 168.7 mg and 93.6 mg and 240.1 mg
same,Urinary Nitrogen,"[2]; Table 8, Example 4, day 5, average of 9 rats",131 mg
same,Urinary Nitrogen,"[2]; Table 8, Example 4, day 5, individual rat",127.8 mg and 97.7 mg and 93.7 mg and 45.9 mg and 84.8 mg and 236.3 mg and 166.4 mg and 123.4 mg and 203.2 mg
same,Urinary Nitrogen,"[2]; Table 8, Example 4, day 6, average of 9 rats",172 mg
same,Urinary Nitrogen,"[2]; Table 8, Example 4, day 6, individual rat",256.3 mg and 104.9 mg and 133.7 mg and 72.7 mg and 138.3 mg and 307.5 mg and 146.9 mg and 169.4 mg and 215.2 mg
same,Urinary Nitrogen,"[2]; Table 8, Example 4, day 7, average of 9 rats",162 mg
same,Urinary Nitrogen,"[2]; Table 8, Example 4, day 7, individual rat",118.3 mg and 106.6 mg and 175.8 mg and 22.6 mg and 145.6 mg and 384.8 mg and 126.8 mg and 162.4 mg and 212.8 mg
same,urinary nitrogen losses,"[2]; in words, 7 days",Saline infused rats also lost more nitrogen in the urine than did glucose infused rats
same,nitrogen balance,"[3]; Example 2, 7 days",around +100 mg/day
same,nitrogen balance,"[3]; Example 4, infused nitrogen considered (FIG. 8)",over 200 mg/day
same,"Nitrogen Balance, Difference Between Intake and Output","[3]; day 1, average of 7 rats",59 MG N
same,"Nitrogen Balance, Difference Between Intake and Output","[3]; day 1, individual rat",-52.22 MG N and 72.46 MG N and -54.7 MG N and 31.61 MG N and 33.35 MG N and 204.48 MG N and 181.5 MG N
same,"Nitrogen Balance, Difference Between Intake and Output","[3]; day 2, average of 7 rats",156 MG N
same,"Nitrogen Balance, Difference Between Intake and Output","[3]; day 2, individual rat",85.19 MG N and 10.96 MG N and 116 MG N and 69.7 MG N and 102.25 MG N and 269.41 MG N and 438.03 MG N
same,"Nitrogen Balance, Difference Between Intake and Output","[3]; day 3, average of 7 rats",88 MG N
same,"Nitrogen Balance, Difference Between Intake and Output","[3]; day 3, individual rat",92.92 MG N and 23.56 MG N and -40.36 MG N and -62.37 MG N and 104.99 MG N and 102.06 MG N and 394.76 MG N
same,"Nitrogen Balance, Difference Between Intake and Output","[3]; day 4, average of 7 rats",193 MG N
same,"Nitrogen Balance, Difference Between Intake and Output","[3]; day 4, individual rat",21.88 MG N and 37.92 MG N and 298.24 MG N and 5.39 MG N and 316.2 MG N and 269.11 MG N and 402.28 MG N
same,"Nitrogen Balance, Difference Between Intake and Output","[3]; day 5, average of 7 rats",113 MG N
same,"Nitrogen Balance, Difference Between Intake and Output","[3]; day 5, individual rat",125.86 MG N and 104.41 MG N and 91.79 MG N and 73.12 MG N and -0.62 MG N and -24.03 MG N and 421.33 MG N
same,"Nitrogen Balance, Difference Between Intake and Output","[3]; day 6, average of 7 rats",124 MG N
same,"Nitrogen Balance, Difference Between Intake and Output","[3]; day 6, individual rat",3.77 MG N and 39.74 MG N and 16.23 MG N and 206.92 MG N and 170.57 MG N and 41.21 MG N and 392.42 MG N
same,"Nitrogen Balance, Difference Between Intake and Output","[3]; day 7, average of 7 rats",137 MG N
same,"Nitrogen Balance, Difference Between Intake and Output","[3]; day 7, individual rat",105.77 MG N and 52.38 MG N and -205.13 MG N and 366.51 MG N and 85.9 MG N and 206.76 MG N and 345.19 MG N
same,nitrogen balance,"[3]; in words, 7 days",positive nitrogen balances
same,Daily Body Weight,"[4]; day 0, average of 7 rats",258 Grams
same,Daily Body Weight,"[4]; day 0, individual rat",244 Grams and 228 Grams and 290 Grams and 250 Grams and 247 Grams and 281 Grams and 269 Grams
same,Daily Body Weight,"[4]; day 1, average of 7 rats",262 Grams
same,Daily Body Weight,"[4]; day 1, individual rat",238 Grams and 217 Grams and 329 Grams and 236 Grams and 244 Grams and 286 Grams and 284 Grams
same,Daily Body Weight,"[4]; day 2, average of 7 rats",257 Grams
same,Daily Body Weight,"[4]; day 2, individual rat",234 Grams and 211 Grams and 298 Grams and 233 Grams and 248 Grams and 293 Grams and 281 Grams
same,Daily Body Weight,"[4]; day 3, average of 7 rats",263 Grams
same,Daily Body Weight,"[4]; day 3, individual rat",229 Grams and 209 Grams and 337 Grams and 231 Grams and 266 Grams and 282 Grams and 286 Grams
same,Daily Body Weight,"[4]; day 4, average of 7 rats",259 Grams
same,Daily Body Weight,"[4]; day 4, individual rat",232 Grams and 207 Grams and 315 Grams and 226 Grams and 246 Grams and 295 Grams and 291 Grams
same,Daily Body Weight,"[4]; day 5, average of 7 rats",251 Grams
same,Daily Body Weight,"[4]; day 5, individual rat",232 Grams and 212 Grams and 278 Grams and 222 Grams and 240 Grams and 279 Grams and 294 Grams
